Where two headings read alike, the source gives them in different places.
Experiments:
C1b domain of human PKCδ = biological target: T1, C1b domain of human PKCδ (Homo sapiens, UniProt Q05655); experiment: Competitive 3H-PDBu binding to C1b domain of PKCδ; settings: 3H-PDBu competition
T1 construct: Genes encoding C1b domains of human PKCα, δ, ε, θ, and PKD1 (PKCμ) were synthesized; made in house; host or cells: E. coli BL21(DE3)
Method: (§1) Compounds described in this disclosure were tested for binding affinity to C1b domain of PKC isoforms. Compound binding affinity to C1b domain of PKC isoforms was derived from competitive binding assay using radioactive tracer ^3H-PDBu and recombinant GST-C1b or full-length of human PKC proteins based on modified procedures from Methods in Molecular Biology, vol.
(§2) Genes encoding C1b domains of human PKCα, δ, ε, θ, and PKD1 (PKCμ) were synthesized and inserted into pGEX-2TK or pGEX-4T1 vectors for expression and production of GST-C1b proteins in E. coli BL21(DE3) via IPTG induction. The target proteins were purified by glutathione sepharose 4B and followed by ion exchange chromatography if needed to achieve purity >70%. Aliquots of the purified proteins were stored at −80 degree for binding assay (storage buffer: 20 mM Tris pH 8.0, 200 mM NaCl, 10% glycerol, 1 mM DTT).
(§3) The plate was incubated at 37° C. on a shaker at 300 rpm for 10 minutes and then put on ice for 20 minutes. […] The bottom of the filter plate was sealed and 50 μL of MicroScint-20 (PerkinElmer) cocktail was added to each well. ^3H-PDBu trapped in each well was counted using PerkinElmer MicroBeta2 Reader. Data were analyzed using GraphPad Prism5 with the model “log(inhibitor) vs. response-variable slope” to fit the IC50, and then IC50 was transformed to Ki using Cheng-Prusoff equation: Ki=IC50/(1+added radio ligand/Kd). Kd is the binding affinity of each protein preparation to ^3H-PDBu, determined experimentally.

C1b domain of human PKCα = biological target: T2, C1b domain of human PKCα (Homo sapiens, UniProt P17252); experiment: biochemical; assay type: binding; settings: 3H-PDBu competition
T2 construct: Genes encoding C1b domains of human PKCα, δ, ε, θ, and PKD1 (PKCμ) were synthesized; made in house; host or cells: E. coli BL21(DE3)
Method: as §1, §2
The plate was incubated at 37° C. on a shaker at 300 rpm for 10 minutes and then put on ice for 20 minutes. […] The bottom of the filter plate was sealed and 50 μL of MicroScint-20 (PerkinElmer) cocktail was added to each well. ^3H-PDBu trapped in each well was counted using PerkinElmer MicroBeta2 Reader. […] Kd is the binding affinity of each protein preparation to ^3H-PDBu, determined experimentally.

[1] = biological target: T3, C1b domain of human PKD1 (PKCμ) (Homo sapiens, UniProt Q15139); experiment: biochemical; assay type: binding
T3 construct: Genes encoding C1b domains of human PKCα, δ, ε, θ, and PKD1 (PKCμ) were synthesized; made in house; host or cells: E. coli BL21(DE3)
T3 sequence (Q15139 270-320 limits assumed): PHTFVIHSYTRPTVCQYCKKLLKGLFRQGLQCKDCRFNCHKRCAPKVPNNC
Method: as §1, §2, §3

[2] = test system: A549 non-small cell lung cancer cell line; experiment: Proliferation of A549 (CellTiter Glo); assay type: cell-based; settings: read-out: IC50 μM (A549 Cell Line)
Method: The diterpenoid compounds were tested in A549, a non-small cell lung cancer cell line harboring a K-Ras activating mutation. Briefly, A549 cells at a density of 1,000 cells/well were seeded in 96-well plates and incubated at 37° C. for 24 hours. A series of different concentrations of compound stocks (500×) were prepared by 3-fold serial dilution in DMSO. These compounds were further diluted in culture media and then added to cells so that the final DMSO concentration was not exceeding 0.25%. After 96 hours of incubation, 50 μL of CellTiter Glo reagent (Promega) was added to each well and luminescence was measured after 10 minutes using EnVision (PerkinElmer). Luminescence from cells treated with DMSO alone was set as Max and % of inhibition was calculated as follows: Inhibition %=(Max−Sample value)/Max×100. Data was analyzed using XL-fit software (ID Business Solutions Ltd.) and IC50, relative IC50, and % of top inhibition was calculated. Some of the compounds in this disclosure were very potent in blocking proliferation of A549 lung cancer cells at low nM range. In addition, potency of inhibiting A549 proliferation correlated well with its binding affinity to PKCs for this series of compounds. In other words, higher affinity binders had stronger inhibitory effects on A549 proliferation. This further support the notion that activation, rather than inhibition, of certain PKC isoforms is required to block proliferation of cancer cells, some of which may harbor K-Ras mutations. This is in sharp contrast to previous literature and common belief that inhibition of PKC is necessary to block cancer cell growth (Kang, 2014, New Journal of Science, 2014:1-36). Data presented here is in agreement with recent findings that many loss-of-function but not gain-of-function mutations of PKC isoforms have been identified in many human cancers (Antal et al., 2015, Cell, 160:489-502).

[3] = Homo sapiens, A549, 96 hours incubation, CellTiter Glo

T1 sequence (Q05655 230-280 limits assumed): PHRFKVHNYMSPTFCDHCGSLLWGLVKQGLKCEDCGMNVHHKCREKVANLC

SMILES	Ki (C1b domain of human PKCδ; Ki PKCδ)	Ki (C1b domain of human PKCα; Ki PKCα)	Ki [1]	IC50 ([2]; Homo sapiens, A549, 96 h)	Ki (C1b domain of human PKCδ; read-out: Ki PKCδ)	Ki (C1b domain of human PKCα; read-out: Ki PKCα)	Ki ([1]; read-out: Ki PKD1/PKCμ)	IC50 ([2]; A549, 96 hours incubation, CellTiter Glo)	IC50 [2, 3]
CCCC[C@H](N)C(=O)O[C@@]12C[C@@H](C)[C@@]3(O)[C@@H](C=C(CO)C[C@]4(O)C(=O)C(C)=C[C@@H]34)[C@@H]1C2(C)C [Compound K101-C1317]	1 to 30 nM	800 to 1000 nM	< 5 nM	0.6 to 1 µM	–	–	–	–	–
CC1=C[C@H]2[C@@]3(O)[C@H](C)C[C@]4(OC(=O)CCc5scnc5C)[C@H]([C@@H]3C=C(CO)C[C@]2(O)C1=O)C4(C)C [Compound K101-C1320]	30 to 60 nM	2000 to 4000 nM	1 to 30 nM	0.2 to 0.6 µM	–	–	–	–	–
CC1=C[C@H]2[C@@]3(O)[C@H](C)C[C@]4(OC(=O)CCc5c[nH]c6ncccc56)[C@H]([C@@H]3C=C(CO)C[C@]2(O)C1=O)C4(C)C [Compound K101-C1322]	30 to 60 nM	800 to 1000 nM	5 to 10 nM	2 to 5 µM	–	–	–	–	–
CC1=C[C@H]2[C@@]3(O)[C@H](C)C[C@]4(OC(=O)CCc5cnn(C)c5)[C@H]([C@@H]3C=C(CO)C[C@]2(O)C1=O)C4(C)C [Compound K101-C1323]	200 to 400 nM	> 8000 nM	100 to 200 nM	2 to 5 µM	–	–	–	–	–
CC1=C[C@H]2[C@@]3(O)[C@H](C)C[C@]4(OC(=O)[C@@H](N)CC5CCC5)[C@H]([C@@H]3C=C(CO)C[C@]2(O)C1=O)C4(C)C [Compound K101-C1325]	30 to 60 nM	4000 to 6000 nM	30 to 60 nM	1 to 2 µM	–	–	–	–	–
CC1=C[C@H]2[C@@]3(O)[C@H](C)C[C@]4(OC(=O)[C@@H](N)CCS(C)(=O)=O)[C@H]([C@@H]3C=C(CO)C[C@]2(O)C1=O)C4(C)C [Compound K101-C1326]	400 to 800 nM	> 8000 nM	200 to 400 nM	> 30 µM	–	–	–	–	–
CC1=C[C@H]2[C@@]3(O)[C@H](C)C[C@]4(OC(=O)[C@@H](N)CC(C)(C)C)[C@H]([C@@H]3C=C(CO)C[C@]2(O)C1=O)C4(C)C [Compound K101-C1328]	1 to 30 nM	200 to 400 nM	< 5 nM	0.2 to 0.6 µM	–	–	–	–	–
CC1=C[C@H]2[C@@]3(O)[C@H](C)C[C@]4(OC(=O)[C@@H](N)CC5CC5)[C@H]([C@@H]3C=C(CO)C[C@]2(O)C1=O)C4(C)C [Compound K101-C1330]	–	1000 to 2000 nM	30 to 60 nM	2 to 5 µM	–	–	–	–	–
CC1=C[C@H]2[C@@]3(O)[C@H](C)C[C@]4(OC(=O)[C@@H](N)C/C=C/c5ccccc5)[C@H]([C@@H]3C=C(CO)C[C@]2(O)C1=O)C4(C)C [Compound K101-C1331]	–	–	–	–	5 to 10 nM	100 to 200 nM	< 5 nM	0.06 to 0.1 µM	–
CC1=C[C@H]2[C@@]3(O)[C@H](C)C[C@]4(OC(=O)[C@@H](N)CC5CCCC5)[C@H]([C@@H]3C=C(CO)C[C@]2(O)C1=O)C4(C)C [Compound K101-C1332]	5 to 10 nM	100 to 200 nM	5 to 10 nM	0.1 to 0.2 µM	–	–	–	–	–
CC1=C[C@H]2[C@@]3(O)[C@H](C)C[C@]4(OC(=O)CCCCCCCCCCC(=O)O)[C@H]([C@@H]3C=C(CO)C[C@]2(O)C1=O)C4(C)C [Compound K101-C1334]	400 to 800 nM	> 8000 nM	30 to 60 nM	10 to 30 µM	–	–	–	–	–
CC1=C[C@H]2[C@@]3(O)[C@H](C)C[C@]4(OC(=O)CCCCCCCCCCCC(=O)O)[C@H]([C@@H]3C=C(CO)C[C@]2(O)C1=O)C4(C)C [Compound K101-C1335]	200 to 400 nM	> 8000 nM	–	10 to 30 µM	–	–	–	–	–
CSCC[C@H](N)C(=O)O[C@@]12C[C@@H](C)[C@@]3(O)[C@@H](C=C(CO)C[C@]4(O)C(=O)C(C)=C[C@@H]34)[C@@H]1C2(C)C [Compound K101-C1338]	100 to 200 nM	2000 to 4000 nM	30 to 60 nM	5 to 10 µM	–	–	–	–	–
CSC[C@H](N)C(=O)O[C@@]12C[C@@H](C)[C@@]3(O)[C@@H](C=C(CO)C[C@]4(O)C(=O)C(C)=C[C@@H]34)[C@@H]1C2(C)C [Compound K101-C1339]	200 to 400 nM	4000 to 6000 nM	–	5 to 10 µM	–	–	–	–	–
CC1=C[C@H]2[C@@]3(O)[C@H](C)C[C@]4(OC(=O)[C@@H](N)Cc5c[nH]c6ccccc56)[C@H]([C@@H]3C=C(CO)C[C@]2(O)C1=O)C4(C)C [Compound K101-C1340]	1 to 30 nM	200 to 400 nM	5 to 10 nM	10 to 30 µM	–	–	–	–	–
CC1=C[C@H]2[C@@]3(O)[C@H](C)C[C@]4(OC(=O)[C@H](N)Cc5c[nH]c6ccccc56)[C@H]([C@@H]3C=C(CO)C[C@]2(O)C1=O)C4(C)C [Compound K101-C1341]	30 to 60 nM	1000 to 2000 nM	1 to 30 nM	10 to 30 µM	–	–	–	–	–
CC1=C[C@H]2[C@@]3(O)[C@H](C)C[C@]4(OC(=O)C[C@H](N)c5ccccc5)[C@H]([C@@H]3C=C(CO)C[C@]2(O)C1=O)C4(C)C [Compound K101-C1343]	30 to 60 nM	1000 to 2000 nM	1 to 30 nM	1 to 2 µM	–	–	–	–	–
CC1=C[C@H]2[C@@]3(O)[C@H](C)C[C@]4(OC(=O)C[C@@H](N)Cc5ccccc5)[C@H]([C@@H]3C=C(CO)C[C@]2(O)C1=O)C4(C)C [Compound K101-C1344]	30 to 60 nM	1000 to 2000 nM	1 to 30 nM	1 to 2 µM	–	–	–	–	–
CC1=C[C@H]2[C@@]3(O)[C@H](C)C[C@]4(OC(=O)[C@H](O)Cc5ccccc5)[C@H]([C@@H]3C=C(CO)C[C@]2(O)C1=O)C4(C)C [Compound K101-C1355]	100 to 200 nM	–	30 to 60 nM	2 to 5 µM	–	–	–	–	–
CN[C@@H](CC1CCCCC1)C(=O)O[C@@]12C[C@@H](C)[C@@]3(O)[C@@H](C=C(CO)C[C@]4(O)C(=O)C(C)=C[C@@H]34)[C@@H]1C2(C)C [Compound K101-C1364]	1 to 30 nM	200 to 400 nM	–	0.2 to 0.6 µM	–	–	–	–	–
CC1=C[C@H]2[C@@]3(O)[C@H](C)C[C@]4(OC(=O)[C@@H](N)C56CC(C(F)(F)F)(C5)C6)[C@H]([C@@H]3C=C(CO)C[C@]2(O)C1=O)C4(C)C [Compound K101-C1375]	–	–	–	–	–	–	–	–	0.06 to 0.1 µM
CC1=C[C@H]2[C@@]3(O)[C@H](C)C[C@]4(OC(=O)[C@@H](N)CCc5ccccc5)[C@H]([C@@H]3C=C(CO)C[C@]2(O)C1=O)C4(C)C [Compound K101-C135602]	1 to 30 nM	200 to 400 nM	–	–	–	–	–	–	–
CC1=C[C@H]2[C@@]3(O)[C@H](C)C[C@]4(OC(=O)[C@H](N)C56CC(F)(C5)C6)[C@H]([C@@H]3C=C(CO)C[C@]2(O)C1=O)C4(C)C [Compound K101-C137301]	–	–	–	–	–	–	–	–	10 to 30 µM
CC1=C[C@H]2[C@@]3(O)[C@H](C)C[C@]4(OC(=O)[C@@H](N)C56CC(F)(C5)C6)[C@H]([C@@H]3C=C(CO)C[C@]2(O)C1=O)C4(C)C [Compound K101-C137302]	–	–	–	–	–	–	–	–	10 to 30 µM
CC1=C[C@H]2[C@@]3(O)[C@H](C)C[C@]4(OC(=O)[C@@H](N)C5Cc6ccccc6C5)[C@H]([C@@H]3C=C(CCl)C[C@]2(O)C1=O)C4(C)C [K101-C1329-Cl]	–	–	–	–	–	–	–	–	0.06 to 0.1 µM
CC1=C[C@H]2[C@@]3(O)[C@H](C)C[C@]4(OC(=O)[C@H](N)CCCCCCc5ccccc5)[C@H]([C@@H]3C=C(COC(=O)[C@@H](N)C(C)C)C[C@]2(O)C1=O)C4(C)C [K101-C134801C2003]	–	–	–	–	–	–	–	–	0.03 to 0.06 µM

Source: patent US20220411362A1, “DITERPENOID COMPOUNDS THAT ACT ON PROTEIN KINASE C (PKC)” (K-Gen, Inc., priority 2019, published 2022)
